One experiment relates to p53 ubiquitination. Kind of experiment: Cellular p53 ubiquitylation assay in U2OS cells. In kind it is cell-based. The following applies: His-tagged ubiquitin, 10 μM, 2 hours. As for the experimental part: After incubation ubiquitylated proteins were purified by adsorption to Ni2+-agarose and separated by SDS-PAGE. P53 was detected by Western blotting. (TCL: Total cell lysate)
To test this option, we performed an cellular ubiquitylation assay in the presence of the compound.

A further experiment addresses T1, HDM2 (Homo sapiens, UniProt Q00987).
T1 construct: made in house; host or cells: bacteria (pGEX-4T-2 vector)
As to the kind of experiment: Limited proteolysis of GST-HDM2 by trypsin. In kind it is binding. Particulars: 10 μM compound, 40 ng trypsin, 15 min on ice.

Peptide text beside a SMILES is read from it. * marks the point of attachment. Cbz = O=C(OCc1ccccc1)*

T1 sequence (Q00987 whole entry): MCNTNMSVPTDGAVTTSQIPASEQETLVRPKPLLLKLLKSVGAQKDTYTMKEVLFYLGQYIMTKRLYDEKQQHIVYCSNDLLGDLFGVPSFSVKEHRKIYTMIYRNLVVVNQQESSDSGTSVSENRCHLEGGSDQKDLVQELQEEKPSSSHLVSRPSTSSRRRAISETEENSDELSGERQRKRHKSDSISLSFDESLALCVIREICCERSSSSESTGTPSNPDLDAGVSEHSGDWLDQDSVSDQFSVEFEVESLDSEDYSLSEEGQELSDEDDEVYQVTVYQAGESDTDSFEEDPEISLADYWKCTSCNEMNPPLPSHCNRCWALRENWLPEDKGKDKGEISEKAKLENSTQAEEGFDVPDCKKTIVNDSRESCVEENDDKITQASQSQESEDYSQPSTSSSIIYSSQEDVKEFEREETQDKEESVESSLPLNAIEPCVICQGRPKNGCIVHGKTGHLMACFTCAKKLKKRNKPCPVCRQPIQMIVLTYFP
Experimental for HDM2: GST-HDM2, GST-HDMX were incubated with 10 μM of JNJ-#1 or with DMSO for control. Then 40 ng trypsin were added and the mixture was incubated for 15 min on ice. […] HDM2 was detected by incubating the membrane with the HDM2 antibodies 4B2, SMP14 and C18. Western blots were developed by ECL.
40 ng of trypsin were added and the mixture was incubated for 15 min on ice. Samples were separated by 10% SDS-PAGE gel and blotted onto Immobilon P membrane. The membrane was incubated with the anti-HDM2 antibody 4B2. The Western blot was developed by ECL.
Then 40 ng trypsin was added and the mixture was incubated for 15 min on ice. Proteolysis was stopped by addition of 2× sample buffer. Samples were loaded onto an 12 or 15% SDS-PAGE gel and HDM2 or HDMX were detected by Western blotting.

`COc1ccc(C2=N[C@@H](c3ccc(Cl)cc3)[C@@H](c3ccc(Cl)cc3)N2C(=O)N2CCNC(=O)C2)c(OC(C)C)c1` [Nutlin-3]: the “ubiquitylation of p53” value with p53 ubiquitination is “strongly reduced”.
Turning to `CC(C)C[C@@H](C=O)NC(=O)[C@H](CC(C)C)NC(=O)[C@H](CC(C)C)NC(=O)OCc1ccccc1` [MG132] (Cbz-Leu-Leu-Leu-aldehyde), the “proteolysis of GST-HDM2 by trypsin” value at HDM2 was “had no affect”.

For the origin of these results see patent publication US20100129933A1, “METHOD FOR DETECTING THE BINDING BETWEEN MDM2 AND THE PROTEASOME” (Forschungszentrum Karlsruhe GmbH, priority 2007, published 2010).
